# Results from patent publication US20140134197A1, “Mimotopic Peptides for the Diagnosis and Treatment of Multiple sclerosis” (priority 2011, published 2014).
# Where a name gives a salt, the structure may show the parent alone. Ends that are not written are not given here.
# Experiment: not given
# Settings: Tables 3a-3e; from cited literature; CD4 T-helper cells; cited from earlier work
row,Compound,Immunosuppressive Effects
1,Fc1ccc([C@@H]2CCNC[C@H]2COc2ccc3c(c2)OCO3)cc1 [Paroxetine],Decreases CD4 T-Helper Cells.

# Same assay, conditions: Tables 3a-3e; from cited literature; cited from earlier work
row,Compound,Immunosuppressive Effects
1,Cc1nnc2n1-c1ccc(Cl)cc1C(c1ccccc1)=NC2 [Alprazolam],Inhibits proliferative responses
2,CC(C)c1c(C(=O)Nc2ccccc2)c(-c2ccccc2)c(-c2ccc(F)cc2)n1CC[C@@H](O)C[C@@H](O)CC(=O)O [Atorvastatin],Increases in IL-10 Production.
3,CN1C(=O)CN=C(c2ccccc2)c2cc(Cl)ccc21 [Diazepam],Markedly Suppresses Antigen-
4,"O=C1NC(=O)C(c2ccccc2)(c2ccccc2)N1 [Dilantin, Phenytoin sodium]",Humoral Immune Suppressant
5,CNCCC(Oc1ccc(C(F)(F)F)cc1)c1ccccc1 (stereo not drawn) [Fluoxethine],Decreases T Lymphocyte
6,"N[C@@H](Cc1cc(I)c(Oc2cc(I)c(O)c(I)c2)c(I)c1)C(=O)O [Levoxyl, Levothyroxine]",Inhibits Cytokine
7,Nc1ccc(O)c(C(=O)O)c1 [Mesalazine],Potent and Specific Inhibitor
8,CC(C)c1nc(N(C)S(C)(=O)=O)nc(-c2ccc(F)cc2)c1/C=C/[C@@H](O)C[C@@H](O)CC(=O)O [Rosuvastatin],Post-Transcriptional Level
9,COc1ccc(C(CN(C)C)C2(O)CCCCC2)cc1 (stereo not drawn) [Venlafaxine],Suppresses pro-Inflammatory
10,NS(=O)(=O)Cc1noc2ccccc12 [Zonisamide],Suppression of IFN-gamma

# Same assay, conditions: Tables 3a-3e; from cited literature; hydrochloride; antigen-specific TH1 responses; cited from earlier work
row,Compound,Immunosuppressive Effects
1,CN[C@H]1CC[C@@H](c2ccc(Cl)c(Cl)c2)c2ccccc21 [Sertraline hydrochloride],Suppression of Antigen-

# Same assay, conditions: Tables 3a-3e; from cited literature; splenocyte viability; cited from earlier work
row,Compound,Immunosuppressive Effects
1,Fc1ccc([C@@H]2CCNC[C@H]2COc2ccc3c(c2)OCO3)cc1 [Paroxetine],Inhibit Splenocyte Viability.

# Experiment: Solubility / hydrophilicity of mimotopic peptides, free or with amino-ADOOA-ADOOA linker
# Type: physicochemical
# Settings: not given
# Description: Dimeric IgE complexing hinges upon disruption of the overhanging oligodendrocyte membrane surface and facilitated intracellular autoantibody inflow. […] Table 4a lists structurally unique, mimotopic, peptides serving as diagnostic and therapeutic antigens. […] Peptides used for initial diagnosis can be of maximum, unique length (column 3) or can be fractionated into pentameric, single epitope equivalents (column 5). […] The amide group is used for covalent Coupling to microplate wells. The 3,6-dioxaoctanoic acid2 construct, being very hydrophilic, solubilizes most al peptides, especially those that are relatively hydrophobic. The listed myelin, dimer-cornerstone peptide homologues (bold-highlighted) for MS therapy are useful because of their in-vivo: (a) net hydrophilicity for adequate solubility; […] The linker provides both increased hydrophilicity for enhanced solubility and serves as a point of attachment onto microtiter test plate wells. The peptide […] NO: 3) is an example of a soluble short peptide that is comprised of a singularly unique MOG surface pentamer, […]
Compound,solubility of short therapeutic peptide,hydrophilicity / solubilization when coupled with amino-ADOOA-ADOOA linker,aggregation tendency
DHSYQE [DHSYQE],soluble,,
DNEVFGEA,,sufficiently hydrophilic,
DNTFKD [DNTFKD],,sufficiently hydrophilic,
HGRTQ [HGRTQ],,solubilize readily,
KDSHHPA [Lys Asp Ser His His Pro Ala],,solubilize readily,
LQTIQE [LQTIQE],,sufficiently hydrophilic,
Lys Gly Thr Gln Phe (KGTQF; listed as Homo sapiens) [KTGQF],,,dual molecule aggregate-forming tendencies
NLHRTFE [Asn Leu His Arg Thr Phe Glu],,sufficiently hydrophilic,
PKNAW [PKNAW],,sufficiently hydrophilic,
QDTAVT [QDTAVT],,sufficiently hydrophilic,
YKDSHHPA,,solubilize readily,
